Experimental data as given in ChEMBL document CHEMBL3091433, “Structure-based design of substituted hexafluoroisopropanol-arylsulfonamides as modulators of RORc” (Bioorg Med Chem Lett, 2013).

How the values were obtained:
[1] = biological target: T1, Nuclear receptor ROR-gamma (Homo sapiens, UniProt P51449)
T1 sequence (P51449 whole entry): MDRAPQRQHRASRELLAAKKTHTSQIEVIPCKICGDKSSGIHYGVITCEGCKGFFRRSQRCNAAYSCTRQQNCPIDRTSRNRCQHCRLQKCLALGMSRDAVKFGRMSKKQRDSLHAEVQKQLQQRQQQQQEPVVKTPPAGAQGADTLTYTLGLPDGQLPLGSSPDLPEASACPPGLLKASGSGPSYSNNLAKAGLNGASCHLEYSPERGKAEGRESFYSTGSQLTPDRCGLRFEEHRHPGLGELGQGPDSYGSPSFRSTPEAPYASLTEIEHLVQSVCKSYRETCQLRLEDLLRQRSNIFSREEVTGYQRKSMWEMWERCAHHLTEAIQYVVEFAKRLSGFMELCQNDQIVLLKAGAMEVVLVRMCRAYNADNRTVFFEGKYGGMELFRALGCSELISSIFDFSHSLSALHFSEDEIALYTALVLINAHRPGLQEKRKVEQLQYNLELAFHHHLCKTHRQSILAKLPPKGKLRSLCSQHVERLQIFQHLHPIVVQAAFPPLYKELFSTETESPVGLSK
Description: Inverse agonist activity at N-terminal 6xHis-tagged human RORc ligand binding domain (241 to 486) expressed in bacterial expression system assessed as inhibition of SRC1 co-activator peptide recruitment after 3 hrs by TR-FRET analysis

[2] = biological target: T1, Nuclear receptor ROR-gamma; remark: listed apart in the source
Description: Displacement of [3H2]-25-hydroxycholesterol from N-terminal 6xHis-tagged human RORc ligand binding domain (241 to 486) expressed in bacterial expression system after 3 hrs by scintillation counting analysis

PBMC [3] = assay: Cytotoxicity against human PBMC assessed as effect on cell physiology after 48 hrs by CellTiter-Glo assay
PBMC [4] = assay: Inhibition of IFNgamma production in human PBMC after 48 hrs by Sandwich ELISA
PBMC [5] = assay: Antiinflammatory activity in human PBMC assessed as inhibition of IL-17 production after 48 hrs by Sandwich ELISA relative to control; type: functional
PBMC [6] = assay: cells; settings: Homo sapiens, 48 h

| SMILES | EC50 [1] | IC50 [2] | other results |
| --- | --- | --- | --- |
| O=C(c1ccccc1)N(CC(F)(F)F)c1ccc(C(O)(C(F)(F)F)C(F)(F)F)cc1 | 4000 nM | 2000 nM |  |
| O=C(O)c1ccc(N(CC(F)(F)F)S(=O)(=O)c2ccccc2)cc1 | > 10000 nM | > 10000 nM |  |
| CC(=O)NCCN(c1ccc(C(O)(C(F)(F)F)C(F)(F)F)cc1)S(=O)(=O)c1ccccc1 | > 10000 nM | > 10000 nM |  |
| O=S(=O)(c1ccccc1)N(Cc1ccccc1)c1ccc(C(O)(C(F)(F)F)C(F)(F)F)cc1 | 8000 nM | 467 nM |  |
| O=S(=O)(c1ccccc1)N(CC(F)(F)F)c1ccc(CO)cc1 | > 10000 nM | > 10000 nM |  |
| O=C(Nc1ccc(C(O)(C(F)(F)F)C(F)(F)F)cc1)c1ccc(C(F)(F)F)cc1 | > 10000 nM | > 10000 nM |  |
| COC(c1ccc(N(CC(F)(F)F)S(=O)(=O)c2ccccc2)cc1)(C(F)(F)F)C(F)(F)F | 9000 nM | 900 nM |  |
| O=S(=O)(c1ccccc1)N(CCC(F)(F)F)c1ccc(C(O)(C(F)(F)F)C(F)(F)F)cc1 | 4000 nM | 519 nM |  |
| Cc1ccc(S(=O)(=O)N(CC(F)(F)F)c2ccc(C(O)(C(F)(F)F)C(F)(F)F)cc2)cc1 | 20 nM | 51 nM |  |
| NC(=O)c1ccc(N(CC(F)(F)F)S(=O)(=O)c2ccccc2)cc1 | > 10000 nM | > 10000 nM |  |
| N#Cc1ccccc1S(=O)(=O)N(CC(F)(F)F)c1ccc(C(O)(C(F)(F)F)C(F)(F)F)cc1 | 920 nM | 520 nM |  |
| NS(=O)(=O)c1ccc(N(CC(F)(F)F)S(=O)(=O)c2ccccc2)cc1 | > 10000 nM | 9000 nM |  |
| O=C(O)CCN(c1ccc(C(O)(C(F)(F)F)C(F)(F)F)cc1)S(=O)(=O)c1ccccc1 | > 10000 nM | > 10000 nM |  |
| O=S(=O)(c1ccccc1)N1CCc2cc(C(O)(C(F)(F)F)C(F)(F)F)ccc21 | 5000 nM | 883 nM |  |
| O=S(=O)(C1CC1)N(CC(F)(F)F)c1ccc(C(O)(C(F)(F)F)C(F)(F)F)cc1 |  | 5000 nM |  |
| COCCN(c1ccc(C(O)(C(F)(F)F)C(F)(F)F)cc1)S(=O)(=O)c1ccccc1 | > 10000 nM | 3000 nM |  |
| CC(=O)Nc1nc(C)c(S(=O)(=O)Nc2ccc(C(O)(C(F)(F)F)C(F)(F)F)cc2)s1 | 911 nM | 2000 nM |  |
| N#Cc1cccc(S(=O)(=O)N(CC(F)(F)F)c2ccc(C(O)(C(F)(F)F)C(F)(F)F)cc2)c1 | 100 nM | 190 nM |  |
| O=C(Nc1ccc(C(O)(C(F)(F)F)C(F)(F)F)cc1)c1ccccc1 | > 10000 nM | > 10000 nM |  |
| O=S(=O)(c1ccccc1)N(CCO)c1ccc(C(O)(C(F)(F)F)C(F)(F)F)cc1 | 1000 nM | 4000 nM |  |
| O=S(=O)(c1ccccc1)N(CC(F)(F)F)c1ccc(C(O)(C(F)(F)F)C(F)(F)F)cc1 [T091317] |  |  | EC50 (PBMC [3]): > 20000 nM; EC50 (PBMC [4]): > 20000 nM; Imax (PBMC [5]): 81%; EC50 (PBMC [6]): 3000 nM |
| O=S(=O)(Cc1ccccc1)N(CC(F)(F)F)c1ccc(C(O)(C(F)(F)F)C(F)(F)F)cc1 | > 2000 nM | 520 nM |  |
| CCN(c1cccc(C(O)(C(F)(F)F)C(F)(F)F)c1)S(=O)(=O)c1ccccc1 | 900 nM | 329 nM |  |
| CS(=O)(=O)CCN(c1ccc(C(O)(C(F)(F)F)C(F)(F)F)cc1)S(=O)(=O)c1ccccc1 | > 10000 nM | > 10000 nM |  |
| O=S(=O)(Nc1ccc(C(O)(C(F)(F)F)C(F)(F)F)cc1)c1ccccc1 |  | > 10000 nM |  |
| O=S(=O)(c1cccnc1)N(CC(F)(F)F)c1ccc(C(O)(C(F)(F)F)C(F)(F)F)cc1 | 1000 nM | 748 nM |  |
